Experimental findings from patent US7838548B2, “Compounds and methods for treating toll-like receptor 2-related diseases and conditions” (Eisai R&D Management Co., Ltd., priority 2003, dated 2010) are described below.

The IC50 is the concentration that inhibits the measured activity by half.

Type in all cases: cell-based
One assay has as its target T1, TLR4 (Homo sapiens, UniProt O00206).
T1 construct: expressed in transfected cells
The assay can be described thus: TLR4 antagonism assay, HEK-TLR4-MD2-ELAM luciferase reporter cells stimulated with LPS plus soluble CD14. As to conditions: Table 6, 10 ng/mL LPS plus 10 nM soluble CD14, 18 hours. On the procedure: (§1) Either Pam3CSK4 and R-MALP-2 lipopeptides (EMC-Microcollections), or lipopolysaccharide (LPS, List Biologicals) are dissolved in water to a concentration of 1 mg/mL, sonicated 5 times for 30 seconds, and stored in aliquots at −20° C. Prior to addition to cells, an aliquot of the dissolved ligand is sonicated for 1 minute and then is diluted in medium to 2 ng/mL Pam3CSK4, 16 ng/mL R-MALP-2, or 100 ng/mL LPS. The final concentration in the assay is 0.2 ng/mL Pam3CSK4, 1.6 ng/mL R-MALP-2, or 10 ng/mL LPS.
(§2) The test compounds are stored as 30 mM stocks in […]. The final concentrations of the test compounds in the assay are 0.1, 0.3, 1, 3, 10, and 30 μM in 0.2% DMSO. 0.2% DMSO is used in the assay as a control.
HEK293 cells stably carrying plasmids for TLR4, MD2, and the NF-κB reporter gene ELAM-1-luciferase (HEK-TLR4-MD2-ELAM) were generated as described by Yang et al., J. Biol. Chem. 275:20861-20866, 2000.
Step 1. On day 1, HEK-TLR4-MD2-ELAM cells were plated at 4×10^5 cells/mL, 80 μL/well, in 96-well black plates. The growth medium used is D-MEM, 10% fetal bovine serum, 2 mM L-glutamine, 10 μg/mL Ciprofloxacin, 300 μg/mL Geneticin (G418), 150 μg/mL Zeocin, and 50 μg/mL Hygromycin.
Step 2. On day 2, 10 μL of each test compound is added to the wells, and 10 μL of LPS plus 10 nM soluble CD14 (Biometec) is added to all of the wells. The plates are then incubated at 37° C., 5% CO2, for 18 hours.
(§3) Step 3. On day 3, 25 μL of Steady-Glo reagent (Promega, Inc.) is added to each well. The plates are then shaken for 5 minutes, and the chemiluminescence of each well is read in a Wallac1450 MicroBetaTriLux counter. Dose-response curves were plotted in KaleidaGraph, version 3.5 Synergy Software, and IC50 values were calculated.
Background: In a reporter assay the amount or activity of a reporter protein is the signal.

Assay [1] addresses T2, human TLR2 (Homo sapiens, UniProt O60603).
T2 construct: expressed in transfected cells
The assay can be described thus: TLR2 antagonism assay, HEK-TLR2-ELAM luciferase reporter cells stimulated with Pam3CSK4. As for the experimental part: as §1, §2
HEK-TLR2-ELAM cells were generated by a two-step method. In step 1, Hek293 cells were transfected with pcDNA3.0 encoding human TLR2 followed by antibiotic selection with G418 in D-MEM supplemented with 10% fetal bovine serum (Gibco BRL) to generate Hek-TLR2 cells. In step 2, Hek-TLR2 cells were transfected with pELAM-luc/Zeo followed by antibiotic selection with Zeocin in D-MEM supplemented with 10% fetal bovine serum. Transfectants were screened for TLR2 responsiveness by measuring ligand-induced pELAM-luciferase reporter activity, and analyzed for TLR2 mRNA expression by RT-PCR.
Step 1. On day 1, HEK-TLR2-ELAM cells are plated at 2×10^5 cells/mL, 80 μL/well, in 96-well black plates. The cells are incubated at 37° C., 5% CO2, for 24 hours. The growth medium used is D-MEM, 10% fetal bovine serum, 2 mM L-glutamine, 10 μg/mL Ciprofloxacin, 300 μg/mL Geneticin (G418), and 150 μg/mL Zeocin.
Step 2. On day 2, 10 μL of each test compound is added to the wells, and 10 μL lipopeptide is added to all of the wells. The plates are then incubated at 37° C., 5% CO2, for 18 hours.
as §3

Assay [2] deals with T2, human TLR2. Put plainly: TLR2 antagonism assay, HEK-TLR2-ELAM luciferase reporter cells stimulated with R-MALP-2. The following applies: Table 7, diacylated lipopeptide R-MALP-2 (TLR2 interacts with TLR6), 1.6 ng/mL. As for the experimental part:
as §1, §2
HEK-TLR2-ELAM cells were generated by a two-step method. In step 1, Hek293 cells were transfected with pcDNA3.0 encoding human TLR2 followed by antibiotic selection with G418 in D-MEM supplemented with 10% fetal bovine serum (Gibco BRL) to generate Hek-TLR2 cells. […] Transfectants were screened for TLR2 responsiveness by measuring ligand-induced pELAM-luciferase reporter activity, and analyzed for TLR2 mRNA expression by RT-PCR. […]
Step 3. […] The plates are then shaken for 5 minutes, and the chemiluminescence of each well is read in a Wallac1450 MicroBetaTriLux counter. Dose-response curves were plotted in KaleidaGraph, version 3.5 Synergy Software, and IC50 values were calculated. […]

[3] abbreviates: Table 6, 0.2 ng/mL Pam3CSK4, 18 hours, ELAM-luciferase reporter.
Setting [4] is: Table 7, triacylated lipopeptide Pam3CSK4 (TLR2 associates with TLR1), 0.2 ng/mL.

T2 sequence (O60603 21-784): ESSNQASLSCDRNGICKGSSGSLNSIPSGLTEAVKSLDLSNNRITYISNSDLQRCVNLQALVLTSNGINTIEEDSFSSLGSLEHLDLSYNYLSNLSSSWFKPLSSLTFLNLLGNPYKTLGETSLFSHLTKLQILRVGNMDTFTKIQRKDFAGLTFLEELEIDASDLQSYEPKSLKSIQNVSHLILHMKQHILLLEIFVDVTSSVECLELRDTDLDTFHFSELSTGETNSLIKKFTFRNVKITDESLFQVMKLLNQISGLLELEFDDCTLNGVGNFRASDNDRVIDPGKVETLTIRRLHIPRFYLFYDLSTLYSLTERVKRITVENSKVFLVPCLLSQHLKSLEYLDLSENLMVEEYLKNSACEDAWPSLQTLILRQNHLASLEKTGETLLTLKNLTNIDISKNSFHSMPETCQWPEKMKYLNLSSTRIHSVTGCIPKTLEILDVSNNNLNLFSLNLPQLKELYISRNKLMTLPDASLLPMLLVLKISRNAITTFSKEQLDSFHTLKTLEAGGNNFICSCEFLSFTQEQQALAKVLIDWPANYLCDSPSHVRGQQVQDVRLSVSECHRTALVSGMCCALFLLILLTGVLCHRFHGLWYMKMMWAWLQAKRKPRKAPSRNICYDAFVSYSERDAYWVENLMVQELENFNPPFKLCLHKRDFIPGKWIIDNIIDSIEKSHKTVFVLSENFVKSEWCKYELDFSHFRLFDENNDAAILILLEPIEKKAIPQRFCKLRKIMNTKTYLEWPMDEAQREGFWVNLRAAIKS
T1 sequence (O00206 24-839): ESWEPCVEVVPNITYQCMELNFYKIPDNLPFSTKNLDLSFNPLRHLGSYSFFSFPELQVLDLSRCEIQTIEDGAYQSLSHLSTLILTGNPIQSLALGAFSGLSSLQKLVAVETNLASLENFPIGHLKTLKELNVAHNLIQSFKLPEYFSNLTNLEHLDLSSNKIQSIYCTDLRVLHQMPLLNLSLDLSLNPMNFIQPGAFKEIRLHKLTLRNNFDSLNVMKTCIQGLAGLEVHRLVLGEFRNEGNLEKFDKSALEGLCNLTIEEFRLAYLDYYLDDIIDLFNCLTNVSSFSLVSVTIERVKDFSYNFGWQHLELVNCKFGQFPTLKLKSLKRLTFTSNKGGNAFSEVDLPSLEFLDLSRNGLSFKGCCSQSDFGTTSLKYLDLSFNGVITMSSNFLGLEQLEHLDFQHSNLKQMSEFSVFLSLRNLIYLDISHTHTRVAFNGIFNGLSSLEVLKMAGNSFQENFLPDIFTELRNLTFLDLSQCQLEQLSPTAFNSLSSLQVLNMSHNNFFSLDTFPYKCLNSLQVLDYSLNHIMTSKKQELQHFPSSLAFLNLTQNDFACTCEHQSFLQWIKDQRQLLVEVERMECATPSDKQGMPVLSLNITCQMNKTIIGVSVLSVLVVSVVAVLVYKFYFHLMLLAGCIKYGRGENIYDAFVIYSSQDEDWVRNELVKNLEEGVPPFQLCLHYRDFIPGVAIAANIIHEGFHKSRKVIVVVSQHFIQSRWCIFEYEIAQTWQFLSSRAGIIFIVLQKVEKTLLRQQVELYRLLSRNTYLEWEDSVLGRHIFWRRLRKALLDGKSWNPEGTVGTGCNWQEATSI
T1 sequence (Q9Y6Y9 17-160 partner limits assumed): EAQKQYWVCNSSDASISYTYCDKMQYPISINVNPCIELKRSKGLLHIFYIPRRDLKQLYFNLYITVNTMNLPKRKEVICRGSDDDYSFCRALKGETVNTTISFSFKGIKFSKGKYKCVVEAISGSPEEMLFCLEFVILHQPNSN

For the compound `CCCCCCCCCCCCCCCCCCCC(=O)N[C@@H](COP(=O)(O)OCCNC(=O)[C@@H](NC(=O)Cc1c[nH]c2ccc(OCc3ccccc3)cc12)[C@@H](C)CC)C(=O)NCCC(O)CCCCCCCCCCCCC` (mixture of isomers) [ER812011], at TLR4, the IC50 was found to be 6600 nM.
Consider `CCCCCCCCCCCCCCCC(=O)N[C@@H](COP(=O)(O)OCCNC(=O)[C@@H](NC(=O)Cc1c[nH]c2ccc(-c3ccccc3)cc12)[C@@H](C)CC)C(=O)NCCCOC(=O)CCCCCCCCCCC` [ER811243], for which the IC50 on TLR4 was 200 nM.
With `CCCCCCCCCCCCCCCC(=O)N[C@@H](COP(=O)(O)OCCNC(=O)[C@@H](NC(=O)Cc1c[nH]c2ccccc12)[C@@H](C)CC)C(=O)NCCCOC(=O)CCCCCCCCCCC` [ER811211], the results for the IC50 at human TLR2 [1] (setting [3]) and at TLR4 were 440 nM and 700 nM, respectively.
`CCCCCCCCCCCCCCCC(=O)OC[C@H](CNC(=O)[C@H](COP(=O)(O)OCCNC(=O)[C@@H](NC(=O)Cc1c[nH]c2ccc(OCc3ccccc3)cc12)[C@@H](C)CC)NC(C)=O)OC(=O)CCCCCCCCCCCCCCC` [ER811245]: the IC50 at human TLR2 [1] (setting [3]) came to 430 nM; at human TLR2 [1] (setting [4]), 440 nM; at TLR4, 3400 nM; on human TLR2 [2], 30000 nM.
As for `CCCCCCCCCCCCCCCCCCCC(=O)N[C@@H](COP(=O)(O)OCCNC(=O)[C@@H](NC(=O)Cc1c[nH]c2ccc(OCc3ccccc3)cc12)C(C)C)C(=O)NCCC(O)CCCCCCCCCCCCC` (mixture of isomers) [ER811254], the values for the IC50 on human TLR2 [1] (setting [3]) and at TLR4 were 770 nM and 3600 nM, respectively.
On the same counts, the results for `CCCCCCCCCCCCCCCC(=O)OCCCNC(=O)C(COP(=O)(O)OCCNC(=O)[C@@H](NC(=O)Cc1c[nH]c2ccccc12)[C@@H](C)CC)NC(=O)CCCCCCCCCCC` (stereo partly drawn) [ER811212] are 390 nM and 1000 nM.
As for `CCCCCCCCCCCCCCCCCCCC(=O)N[C@@H](COP(=O)(O)OCCNC(=O)[C@@H](NC(=O)Cc1c[nH]c2ccccc12)[C@@H](C)CC)C(=O)NCCC(O)CCCCCCCCCCCCC` (mixture of isomers) [ER811393], the IC50 on TLR4 worked out at 12300 nM.
`CCCCCCCCCCCCCCCC(=O)N[C@@H](COP(=O)(O)OCCNC(=O)[C@@H](NC(=O)Cc1c[nH]c2ccc(Br)cc12)[C@@H](C)CC)C(=O)NCCCOC(=O)CCCCCCCCCCC` [ER811232]: the values for the IC50 at human TLR2 [1] (setting [3]) and at TLR4 were 750 nM and 400 nM, respectively.
On the same counts, the results for `CCCCCCCCCCCCCCCC(=O)OC[C@H](CNC(=O)[C@@H](COP(=O)(O)OCCNC(=O)[C@@H](NC(=O)Cc1c[nH]c2ccc(OCc3ccccc3)cc12)[C@@H](C)CC)NC(C)=O)OC(=O)CCCCCCCCCCCCCCC` [ER811261] are 500 nM and 1800 nM.
For the compound `CCCCCCCCCCCCCC(=O)N[C@H](COCC[C@@H](CCCCCCC)OC(=O)CCCCCCCCCCC)COP(=O)(O)OCCNC(=O)[C@@H](NC(=O)Cc1c[nH]c2ccccc12)[C@@H](C)CC` [ER808977], the IC50 was found to be 240 nM at human TLR2 [1] (setting [4]) and 20000 nM on human TLR2 [2].
On to `CCCCCCCCCCCCCCCCCCCC(=O)N[C@@H](COP(=O)(O)OCCNC(=O)[C@@H](NC(=O)Cc1c[nH]c2ccccc12)[C@@H](C)CC)C(=O)NCCC(O)CCCCCCCCCC` (mixture of isomers) [ER811395], for which the IC50 on human TLR2 [1] (setting [3]) came to 650 nM; on TLR4, 1800 nM.
